Experimental findings from PubChem BioAssay AID246 (DTP/NCI, 2004) are described below.

For this test, the system named is BDF1 mice, P1081 chloroleukemia ip, survival T/C. As to the kind of experiment: NCI In Vivo Anticancer Drug Screen. Data for tumor model P1081 Chloroleukemia (intraperitoneal) in B6D2F1 (BDF1) mice. The note with it: endpoint: mean survival time, higher = longer survival. As for the experimental part: The antitumor activity of compounds was measured in mice bearing transplantable tumors. Survival or tumor size were measured and the results are expressed as the measurement made in the treated group (T) divided by the measurement made in the vehicle treated control group (C). The tumor model used in this assay is P1081 Chloroleukemia (intraperitoneal) in B6D2F1 (BDF1) mice

Setting [1] is: dose: 0.31 mg/kg/injection, schedule: Q01DX Z (ip), vehicle: carboxymethylcellulose (CMC).
The mark [2] stands for this setting: dose: 0.63 mg/kg/injection, schedule: Q01DX Z (ip), vehicle: carboxymethylcellulose (CMC).
[3] abbreviates: dose: 15.6 mg/kg/injection, schedule: Q01DX010 (ip), vehicle: saline.
[4] abbreviates: dose: 31.3 mg/kg/injection, schedule: Q01DX010 (ip), vehicle: saline.
Where [5] appears, read: dose: 62.5 mg/kg/injection, schedule: Q01DX010 (ip), vehicle: saline.
The mark [6] stands for this setting: dose: 125.0 mg/kg/injection, schedule: Q01DX010 (ip), vehicle: saline.

SMILES strings stand for the structures. Values joined by “and” are separate entries in the source; they are usually repeats but may differ in a detail not shown here. Identical values can stand only once. Toxic doses and inconclusive results are not listed. Numbered stars: 1 amine (or outer) side, 2 acyl side, 3 side chain; on linkers, the order of the positions; unused ones are H or OH. Bridge positions count the residues as written; N and C are the ends. Square brackets hold non-standard residues; d marks the D form. Peptide text beside a SMILES is read from it. I, II: the chains in the order shown. Actinocin(9to1) = Cc1c2oc3c(C)ccc(C(=O)[*:1])c3nc-2c(C(=O)[*:2])c(N)c1=O; aThr = C[C@H](O)[C@H](N)C(=O)O; NMeV = CN[C@H](C(=O)O)C(C)C; Sar = CNCC(=O)O

As to `Cc1c2oc3c(C)ccc(C(=O)N[C@@H]4C(=O)N[C@H](C(C)C)C(=O)N5CCC[C@H]5C(=O)N(C)CC(=O)N(C)[C@@H](C(C)C)C(=O)O[C@H]4C)c3nc-2c(C(=O)N[C@@H]2C(=O)N[C@H](C(C)C)C(=O)N3CCC[C@H]3C(=O)N(C)CC(=O)N(C)[C@@H](C(C)C)C(=O)O[C@H]2C)c(N)c1=O` (I: [aThr][dV]P[Sar][NMeV] / II: [aThr][dV]P[Sar][NMeV]; ester I:1-I:C, II:1-II:C; linker I:N-II:N via Actinocin(9to1)), the T/C (dose: 0.7 micrograms/kg/injection, schedule: Q01DX Z (ip), vehicle: saline) is 103 % of control; the T/C (dose: 1.5 micrograms/kg/injection, schedule: Q01DX Z (ip), vehicle: saline) is 94 % of control; the T/C (dose: 6.2 micrograms/kg/injection, schedule: Q01DX Z (ip), vehicle: saline) was 110 % of control; the T/C (dose: 12.5 micrograms/kg/injection, schedule: Q01DX010 (ip), vehicle: other) is 155 % of control; the T/C (dose: 25.0 micrograms/kg/injection, schedule: Q01DX010 (ip), vehicle: other) is 190 % of control and 205 % of control; the T/C (dose: 25.0 micrograms/kg/injection, schedule: Q01DX Z (ip), vehicle: saline) was 119 % of control. Further, the T/C (dose: 50.0 micrograms/kg/injection, schedule: Q01DX010 (ip), vehicle: other) was 180 % of control and 245 % of control; the T/C (dose: 50.0 micrograms/kg/injection, schedule: Q01DX Z (ip), vehicle: saline) was 104 % of control; the T/C (dose: 100.0 micrograms/kg/injection, schedule: Q01DX010 (ip), vehicle: other) was 105 % of control; the T/C (dose: 100.0 micrograms/kg/injection, schedule: Q01DX Z (ip), vehicle: saline) was 102 % of control.
For `CC[C@]1(O)C[C@H]2CN(CCc3c([nH]c4ccccc34)[C@@](C(=O)OC)(c3cc4c(cc3OC)N(C=O)[C@H]3[C@@](O)(C(=O)OC)[C@H](OC(C)=O)[C@]5(CC)C=CCN6CC[C@]43[C@@H]65)C2)C1`, the T/C by setting is: (dose: 0.06 mg/kg/injection, schedule: Q01DX Z (ip), vehicle: water) 112 % of control; (dose: 1.0 mg/kg/injection, schedule: Q01DX Z (ip), vehicle: water) 118 % of control.
As to `N[C@@H](Cc1ccc(N(CCCl)CCCl)cc1)C(=O)O`, the T/C runs as follows: (dose: 0.31 mg/kg/injection, schedule: Q01DX Z (ip), vehicle: saline) 159 % of control; (dose: 0.63 mg/kg/injection, schedule: Q01DX Z (ip), vehicle: saline) 206 % of control; (dose: 1.25 mg/kg/injection, schedule: Q01DX Z (ip), vehicle: saline) 193 % of control; (dose: 2.5 mg/kg/injection, schedule: Q01DX Z (ip), vehicle: saline) 229 % of control; (dose: 5.0 mg/kg/injection, schedule: Q01DX Z (ip), vehicle: saline) 217 % of control; (dose: 10.0 mg/kg/injection, schedule: Q01DX Z (ip), vehicle: saline) 107 % of control.
Consider `Nc1nc(=S)c2ncn(C3OC(CO)C(O)C3O)c2[nH]1` (stereo unspecified), for which the T/C was 117 % of control under setting [1]; 115 % of control under setting [2]; 158 % of control (dose: 2.5 mg/kg/injection, schedule: Q01DX Z (ip), vehicle: carboxymethylcellulose (CMC)); 95 % of control (dose: 5.0 mg/kg/injection, schedule: Q01DX Z (ip), vehicle: carboxymethylcellulose (CMC)); 95 % of control (dose: 8.0 mg/kg/injection, schedule: Q01DX010 (ip), vehicle: saline); 90 % of control (dose: 16.0 mg/kg/injection, schedule: Q01DX010 (ip), vehicle: saline). In addition, where the note is “dose: 20.0 mg/kg/injection, schedule: Q01DX Z (ip), vehicle: carboxymethylcellulose (CMC)”, the T/C was 90 % of control.
Regarding `CCn1cnc2c(=S)nc[nH]c21`, the T/C (dose: 7.75 mg/kg/injection, schedule: Q01DX Z (ip), vehicle: carboxymethylcellulose (CMC)) was 112 % of control; the T/C (dose: 15.5 mg/kg/injection, schedule: Q01DX Z (ip), vehicle: carboxymethylcellulose (CMC)) was 101 % of control; the T/C under setting [3] is 110 % of control and 105 % of control; the T/C (dose: 31.0 mg/kg/injection, schedule: Q01DX Z (ip), vehicle: carboxymethylcellulose (CMC)) was 105 % of control; the T/C under setting [4] was 100 % of control and 105 % of control; the T/C under setting [5] is 110 % of control and 105 % of control. Besides, the T/C by setting is: (dose: 62.5 mg/kg/injection, schedule: Q01DX Z (ip), vehicle: carboxymethylcellulose (CMC)) 110 % of control; (dose: 63.0 mg/kg/injection, schedule: Q01DX Z (ip), vehicle: carboxymethylcellulose (CMC)) 98 % of control; under setting [6], 115 % of control; (dose: 125.0 mg/kg/injection, schedule: Q01DX Z (ip), vehicle: carboxymethylcellulose (CMC)) 86 % of control.
Take `Nc1ncnc2c1ccn2C1OC(CO)C(O)C1O` (stereo unspecified): the T/C (dose: 0.04 mg/kg/injection, schedule: Q01DX Z (ip), vehicle: carboxymethylcellulose (CMC)) is 98 % of control; the T/C (dose: 0.08 mg/kg/injection, schedule: Q01DX Z (ip), vehicle: carboxymethylcellulose (CMC)) was 94 % of control; the T/C (dose: 0.16 mg/kg/injection, schedule: Q01DX Z (ip), vehicle: carboxymethylcellulose (CMC)) was 101 % of control; the T/C under setting [1] was 110 % of control and 112 % of control; the T/C under setting [2] was 108 % of control; the T/C (dose: 1.25 mg/kg/injection, schedule: Q01DX Z (ip), vehicle: carboxymethylcellulose (CMC)) was 88 % of control.
As to `O=NN(CCCl)C(=O)NCCCl`, the T/C is, setting by setting: (dose: 1.0 mg/kg/injection, schedule: Q01DX Z (ip), vehicle: saline) 95 % of control; (dose: 2.0 mg/kg/injection, schedule: Q01DX Z (ip), vehicle: saline) 112 % of control and 96 % of control; (dose: 3.13 mg/kg/injection, schedule: Q01DX010 (ip), vehicle: saline) 220 % of control; (dose: 4.0 mg/kg/injection, schedule: Q01DX Z (ip), vehicle: saline) 114 % of control and 116 % of control; (dose: 6.25 mg/kg/injection, schedule: Q01DX010 (ip), vehicle: saline) 290 % of control and 300 % of control; (dose: 8.0 mg/kg/injection, schedule: Q01DX Z (ip), vehicle: saline) 118 % of control. In addition, the T/C is, setting by setting: (dose: 12.5 mg/kg/injection, schedule: Q01DX010 (ip), vehicle: saline) 150 % of control; (dose: 16.0 mg/kg/injection, schedule: Q01DX Z (ip), vehicle: saline) 92 % of control.
With `Nc1c(Br)cc2c(c1Br)Cc1cc([N+](=O)[O-])ccc1-2`, the T/C under setting [3] is 100 % of control; the T/C under setting [4] is 105 % of control; the T/C under setting [5] was 110 % of control and 100 % of control; the T/C under setting [6] is 100 % of control; the T/C (dose: 250.0 mg/kg/injection, schedule: Q01DX010 (ip), vehicle: saline) was 100 % of control; the T/C (dose: 500.0 mg/kg/injection, schedule: Q01DX010 (ip), vehicle: saline) was 95 % of control.
As to `CS(=O)(=O)OCCN(CCOS(C)(=O)=O)c1ccc(N=O)cc1`, the T/C (dose: 0.5 mg/kg/injection, schedule: Q01DX010 (ip), vehicle: saline) is 122 % of control; the T/C (dose: 1.0 mg/kg/injection, schedule: Q01DX010 (ip), vehicle: saline) was 104 % of control; the T/C (dose: 62.5 micrograms/kg/injection, schedule: Q01DX010 (ip), vehicle: saline) was 155 % of control; the T/C (dose: 125.0 micrograms/kg/injection, schedule: Q01DX010 (ip), vehicle: saline) is 194 % of control; the T/C (dose: 250.0 micrograms/kg/injection, schedule: Q01DX010 (ip), vehicle: saline) was 277 % of control; the T/C (dose: 500.0 micrograms/kg/injection, schedule: Q01DX010 (ip), vehicle: saline) is 238 % of control.
For the molecule `COc1cc2c(cc1I)-c1c(cc(OC)c(OC)c1OC)CC[C@@H]2NC(C)=O`, the T/C by setting is: (dose: 45.0 mg/kg/injection, schedule: Q01DX010 (ip), vehicle: saline) 120 % of control; (dose: 67.0 mg/kg/injection, schedule: Q01DX010 (ip), vehicle: saline) 115 % of control; (dose: 100.0 mg/kg/injection, schedule: Q01DX010 (ip), vehicle: saline) 115 % of control; (dose: 150.0 mg/kg/injection, schedule: Q01DX010 (ip), vehicle: saline) 111 % of control and 115 % of control; (dose: 225.0 mg/kg/injection, schedule: Q01DX010 (ip), vehicle: saline) 100 % of control.
